ChEMBL document CHEMBL3769305, “Glucose-functionalized amino-OPEs as biocompatible photosensitizers in PDT” (Eur J Med Chem, 2016)

Tests used:
[1] = Induction of singlet-oxygen generation at 5 x 10^-5 M irradiated at 380 nm by uric acid degradation assay; assay type: physicochemical; conditions: 0.38 µM
HaCaT = assay: Induction of necrosis in human HaCaT cells at LD50 after 24 hrs by acridine orange/ethidium bromide staining-based assay in presence of 0.25 to 0.5 J/cm'2 UVA light; assay type: cell-based
[2] = Induction of singlet-oxygen generation at 5 x 10^-5 M irradiated at 390 nm by uric acid degradation assay; assay type: physicochemical; conditions: 0.39 µM

SMILES	Activity [1]	Activity (HaCaT)	Activity [2]
COc1cc(C#Cc2ccc(C#Cc3cc(OC)c(C#CCO[C@@H]4O[C@H](CO)[C@@H](O)[C@H](O)[C@H]4O)cc3OC)c(N(C)C)c2)c(OC)cc1C#CCO[C@@H]1O[C@H](CO)[C@@H](O)[C@H](O)[C@H]1O	Active	Toxic	–
COc1cc(C#Cc2ccc(C#CCO[C@@H]3O[C@H](CO)[C@@H](O)[C@H](O)[C@H]3O)cc2N(C)C)c(OC)cc1C#Cc1ccc(C#CCO[C@@H]2O[C@H](CO)[C@@H](O)[C@H](O)[C@H]2O)cc1N(C)C	–	Toxic	Active
